Values quoted from earlier work in patent US12697342B2, “Non-surgical prevention of boar taint and aggressive behavior” (priority 2022, dated 2026).

Test system: Sertoli cells
Conditions: young male pigs

Row | Compound | duration of Sertoli cell proliferation and testis size
1 | N#Cc1ccc(C(c2ccc(C#N)cc2)n2cncn2)cc1 [Letrozole] | highly significant increase
2 | C[C@]12CC[C@@H]3c4ccc(O)cc4C[C@@H](CCCCCCCCC[S+]([O-])CCCC(F)(F)C(F)(F)F)[C@H]3[C@@H]1CC[C@@H]2O (some centres unmarked) [ICI 182,780] | highly significant increase
